# Laboratory results taken from ChEMBL document CHEMBL1909046, “DrugMatrix in vitro pharmacology data”.
# Target: T1, Estrogen receptor (Homo sapiens, UniProt P03372); also: in other assays of this panel Not Active means under 50% inhibition at 10 µM
# T1 sequence (P03372 whole entry): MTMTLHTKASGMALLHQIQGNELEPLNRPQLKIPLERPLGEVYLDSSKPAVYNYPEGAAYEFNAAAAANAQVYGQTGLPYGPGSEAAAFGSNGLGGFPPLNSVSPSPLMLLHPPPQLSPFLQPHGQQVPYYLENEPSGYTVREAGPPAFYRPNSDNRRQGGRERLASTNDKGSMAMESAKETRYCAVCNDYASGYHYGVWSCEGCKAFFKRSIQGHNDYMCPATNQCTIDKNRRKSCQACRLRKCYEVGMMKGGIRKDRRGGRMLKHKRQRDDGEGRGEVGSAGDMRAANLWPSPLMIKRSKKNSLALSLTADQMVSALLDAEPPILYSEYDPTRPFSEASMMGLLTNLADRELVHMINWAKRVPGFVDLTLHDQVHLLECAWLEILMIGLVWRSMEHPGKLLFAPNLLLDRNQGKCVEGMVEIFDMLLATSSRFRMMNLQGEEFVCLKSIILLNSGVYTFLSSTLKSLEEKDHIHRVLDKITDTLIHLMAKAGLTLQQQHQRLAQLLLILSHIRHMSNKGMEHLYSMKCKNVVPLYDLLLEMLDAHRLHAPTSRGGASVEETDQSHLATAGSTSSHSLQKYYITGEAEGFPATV
# Conditions: sf9
row,SMILES,IC50
1,CCCCC(=O)N(Cc1ccc(-c2ccccc2-c2nnn[nH]2)cc1)[C@H](C(=O)O)C(C)C,Not Active
2,O=C(O)COc1ccc(C(=O)c2cccs2)c(Cl)c1Cl,Not Active
3,CN1[C@@H]2CC[C@H]1C[C@@H](OC(c1ccccc1)c1ccccc1)C2 [BENZTROPINE],Not Active
4,CN1CCN(C2=Nc3cc(Cl)ccc3Nc3ccccc32)CC1 [CLOZAPINE],Not Active
5,"O=C(O)CCCCC1CCSS1 (stereo not drawn) [LIPOIC ACID, ALPHA]",Not Active
6,CN(C)C(=O)C(CCN1CCC(O)(c2ccc(Cl)cc2)CC1)(c1ccccc1)c1ccccc1 [LOPERAMIDE],Not Active
7,Clc1ccc(COC(Cn2ccnc2)c2ccc(Cl)cc2Cl)c(Cl)c1 (configuration not stated) [MICONAZOLE],Not Active
8,Oc1ccc2c3c1O[C@H]1[C@@H](O)CC[C@@]4(O)[C@@H](C2)N(CC2CCC2)CC[C@]314 [NALBUPHINE],Not Active
9,C[C@]12C=CC(=O)C=C1CC[C@@H]1[C@@H]2C(=O)C[C@@]2(C)[C@H]1CC[C@]2(O)C(=O)CO [PREDNISONE],Not Active
10,O=C(O)c1ccccc1O [SALICYLIC ACID],Not Active
11,C[S+]([O-])c1ccc(-c2nc(-c3ccncc3)c(-c3ccc(F)cc3)[nH]2)cc1 (configuration not stated) [SB-203580],Not Active
12,CC1CCC(NC(=O)N(CCCl)N=O)CC1 (configuration not stated) [SEMUSTINE],Not Active
13,C[N+](C)(C)CCOC(=O)CCC(=O)OCC[N+](C)(C)C.[Cl-].[Cl-] [SUCCINYLCHOLINE CHLORIDE],Not Active

# Test system: not listed separately
# Experiment: DRUGMATRIX: Glutamate, AMPA radioligand binding (ligand: [3H] AMPA)
# Type: cell membranes, Rattus norvegicus, Wistar, Cerebral cortex, Membrane
# Conditions: Not Active = under 50% inhibition at 10 µM
SMILES,IC50,Ki
CCCCC(=O)N(Cc1ccc(-c2ccccc2-c2nnn[nH]2)cc1)[C@H](C(=O)O)C(C)C,Not Active,Not Active
O=C(O)COc1ccc(C(=O)c2cccs2)c(Cl)c1Cl,Not Active,Not Active
"O=C(O)CCCCC1CCSS1 (stereo not drawn) [LIPOIC ACID, ALPHA]",Not Active,Not Active
C[C@]12C=CC(=O)C=C1CC[C@@H]1[C@@H]2C(=O)C[C@@]2(C)[C@H]1CC[C@]2(O)C(=O)CO [PREDNISONE],Not Active,Not Active
O=C(O)c1ccccc1O [SALICYLIC ACID],Not Active,Not Active
CC1CCC(NC(=O)N(CCCl)N=O)CC1 (configuration not stated) [SEMUSTINE],Not Active,Not Active
C[N+](C)(C)CCOC(=O)CCC(=O)OCC[N+](C)(C)C.[Cl-].[Cl-] [SUCCINYLCHOLINE CHLORIDE],Not Active,Not Active

# Target: Mu-type opioid receptor (Homo sapiens, UniProt P35372)
# Experiment: DRUGMATRIX: Opiate mu (OP3, MOP) radioligand binding (ligand: [3H] Diprenorphine)
# Type: cell membranes, CHO-K1, Membrane
# Conditions: Not Active = under 50% inhibition at 10 µM
# Mu-type opioid receptor, sequence (P35372 whole entry): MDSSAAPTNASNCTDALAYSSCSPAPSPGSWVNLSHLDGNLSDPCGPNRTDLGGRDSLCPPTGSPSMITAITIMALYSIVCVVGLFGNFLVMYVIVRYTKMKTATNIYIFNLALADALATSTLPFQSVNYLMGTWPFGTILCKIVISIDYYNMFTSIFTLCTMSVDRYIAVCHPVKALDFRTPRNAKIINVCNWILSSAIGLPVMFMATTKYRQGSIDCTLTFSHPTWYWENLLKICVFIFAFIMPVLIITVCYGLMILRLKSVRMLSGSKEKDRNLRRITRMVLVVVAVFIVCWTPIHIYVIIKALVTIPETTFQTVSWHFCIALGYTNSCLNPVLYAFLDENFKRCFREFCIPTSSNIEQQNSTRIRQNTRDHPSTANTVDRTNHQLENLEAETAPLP
row,SMILES,Ki
1,Clc1ccc(COC(Cn2ccnc2)c2ccc(Cl)cc2Cl)c(Cl)c1 (configuration not stated) [MICONAZOLE],2460 nM

# Same assay, conditions: Not Active = under 50% inhibition at 10 µM; read-out: IC50
row,SMILES,IC50
1,Clc1ccc(COC(Cn2ccnc2)c2ccc(Cl)cc2Cl)c(Cl)c1 (configuration not stated) [MICONAZOLE],6060 nM

# Same assay, conditions: cho-k1; Not Active = under 50% inhibition at 10 µM
row,SMILES,IC50
1,CCCCC(=O)N(Cc1ccc(-c2ccccc2-c2nnn[nH]2)cc1)[C@H](C(=O)O)C(C)C,Not Active
2,O=C(O)COc1ccc(C(=O)c2cccs2)c(Cl)c1Cl,Not Active
3,CN1[C@@H]2CC[C@H]1C[C@@H](OC(c1ccccc1)c1ccccc1)C2 [BENZTROPINE],Not Active
4,CN1CCN(C2=Nc3cc(Cl)ccc3Nc3ccccc32)CC1 [CLOZAPINE],Not Active
5,"O=C(O)CCCCC1CCSS1 (stereo not drawn) [LIPOIC ACID, ALPHA]",Not Active
6,C[C@]12C=CC(=O)C=C1CC[C@@H]1[C@@H]2C(=O)C[C@@]2(C)[C@H]1CC[C@]2(O)C(=O)CO [PREDNISONE],Not Active
7,C[S+]([O-])c1ccc(-c2nc(-c3ccncc3)c(-c3ccc(F)cc3)[nH]2)cc1 (configuration not stated) [SB-203580],Not Active
8,CC1CCC(NC(=O)N(CCCl)N=O)CC1 (configuration not stated) [SEMUSTINE],Not Active
9,C[N+](C)(C)CCOC(=O)CCC(=O)OCC[N+](C)(C)C.[Cl-].[Cl-] [SUCCINYLCHOLINE CHLORIDE],Not Active

# Test system: not listed separately
# Experiment: DRUGMATRIX: Glutamate, Kainate radioligand binding (ligand: [3H] Kainic acid)
# Type: cell membranes, Rattus norvegicus, Wistar, Brain, Membrane
# Conditions: Not Active = under 50% inhibition at 10 µM
SMILES,IC50,Ki
CCCCC(=O)N(Cc1ccc(-c2ccccc2-c2nnn[nH]2)cc1)[C@H](C(=O)O)C(C)C,Not Active,Not Active
O=C(O)COc1ccc(C(=O)c2cccs2)c(Cl)c1Cl,Not Active,Not Active
"O=C(O)CCCCC1CCSS1 (stereo not drawn) [LIPOIC ACID, ALPHA]",Not Active,Not Active
C[C@]12C=CC(=O)C=C1CC[C@@H]1[C@@H]2C(=O)C[C@@]2(C)[C@H]1CC[C@]2(O)C(=O)CO [PREDNISONE],Not Active,Not Active
O=C(O)c1ccccc1O [SALICYLIC ACID],Not Active,Not Active
CC1CCC(NC(=O)N(CCCl)N=O)CC1 (configuration not stated) [SEMUSTINE],Not Active,Not Active
C[N+](C)(C)CCOC(=O)CCC(=O)OCC[N+](C)(C)C.[Cl-].[Cl-] [SUCCINYLCHOLINE CHLORIDE],Not Active,Not Active

# Test system: not listed separately
# Experiment: DRUGMATRIX: Imidazoline I2, Central radioligand binding (ligand: [3H] Idazoxan)
# Type: cell membranes, Rattus norvegicus, Wistar, Cerebral cortex, Membrane
# Conditions: Not Active = under 50% inhibition at 10 µM
SMILES,IC50,Ki
CCCCC(=O)N(Cc1ccc(-c2ccccc2-c2nnn[nH]2)cc1)[C@H](C(=O)O)C(C)C,Not Active,Not Active
O=C(O)COc1ccc(C(=O)c2cccs2)c(Cl)c1Cl,Not Active,Not Active
"O=C(O)CCCCC1CCSS1 (stereo not drawn) [LIPOIC ACID, ALPHA]",Not Active,Not Active
C[C@]12C=CC(=O)C=C1CC[C@@H]1[C@@H]2C(=O)C[C@@]2(C)[C@H]1CC[C@]2(O)C(=O)CO [PREDNISONE],Not Active,Not Active
O=C(O)c1ccccc1O [SALICYLIC ACID],Not Active,Not Active
C[N+](C)(C)CCOC(=O)CCC(=O)OCC[N+](C)(C)C.[Cl-].[Cl-] [SUCCINYLCHOLINE CHLORIDE],Not Active,Not Active

# Same assay, conditions: Not Active = under 50% inhibition at 10 µM; read-out: IC50
row,SMILES,IC50
1,CC1CCC(NC(=O)N(CCCl)N=O)CC1 (configuration not stated) [SEMUSTINE],1620 nM

# Same assay, conditions: Not Active = under 50% inhibition at 10 µM; read-out: Ki
row,SMILES,Ki
1,CC1CCC(NC(=O)N(CCCl)N=O)CC1 (configuration not stated) [SEMUSTINE],1080 nM

# Target: Cytochrome P450 2C9 (Homo sapiens, UniProt P11712); also: in other assays of this panel Not Active means under 50% inhibition at 10 µM
# Conditions: bti-tn-5b1-4
# Cytochrome P450 2C9, sequence (P11712 whole entry): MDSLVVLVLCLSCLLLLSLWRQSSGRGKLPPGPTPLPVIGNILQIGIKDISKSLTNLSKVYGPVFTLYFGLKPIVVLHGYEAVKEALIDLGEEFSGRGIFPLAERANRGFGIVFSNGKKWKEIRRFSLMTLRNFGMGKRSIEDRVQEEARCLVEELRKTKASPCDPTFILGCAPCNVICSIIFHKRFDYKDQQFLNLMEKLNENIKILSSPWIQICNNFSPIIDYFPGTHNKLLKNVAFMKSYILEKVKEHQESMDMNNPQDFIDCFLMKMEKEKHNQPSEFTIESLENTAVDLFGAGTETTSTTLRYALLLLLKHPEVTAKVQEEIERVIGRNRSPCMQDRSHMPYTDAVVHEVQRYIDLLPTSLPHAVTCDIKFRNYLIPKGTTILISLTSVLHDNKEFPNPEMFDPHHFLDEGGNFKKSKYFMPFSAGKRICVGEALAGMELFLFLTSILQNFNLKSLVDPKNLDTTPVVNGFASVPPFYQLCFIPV
SMILES,IC50,Ki
CCCCC(=O)N(Cc1ccc(-c2ccccc2-c2nnn[nH]2)cc1)[C@H](C(=O)O)C(C)C,Not Active,Not Active
O=C(O)COc1ccc(C(=O)c2cccs2)c(Cl)c1Cl,Not Active,Not Active
CN1[C@@H]2CC[C@H]1C[C@@H](OC(c1ccccc1)c1ccccc1)C2 [BENZTROPINE],Not Active,Not Active
CN1CCN(C2=Nc3cc(Cl)ccc3Nc3ccccc32)CC1 [CLOZAPINE],Not Active,Not Active
"O=C(O)CCCCC1CCSS1 (stereo not drawn) [LIPOIC ACID, ALPHA]",Not Active,Not Active
CN(C)C(=O)C(CCN1CCC(O)(c2ccc(Cl)cc2)CC1)(c1ccccc1)c1ccccc1 [LOPERAMIDE],Not Active,Not Active
O=C(O)c1ccccc1O [SALICYLIC ACID],Not Active,Not Active
CC1CCC(NC(=O)N(CCCl)N=O)CC1 (configuration not stated) [SEMUSTINE],Not Active,Not Active
C[N+](C)(C)CCOC(=O)CCC(=O)OCC[N+](C)(C)C.[Cl-].[Cl-] [SUCCINYLCHOLINE CHLORIDE],Not Active,Not Active

# Target: Sodium-dependent dopamine transporter (Homo sapiens, UniProt Q01959)
# Experiment: DRUGMATRIX: Dopamine Transporter radioligand binding (ligand: [125I] RTI-55)
# Type: cell membranes, CHO-K1, Membrane
# Conditions: cho-k1; Not Active = under 50% inhibition at 10 µM
# Sodium-dependent dopamine transporter, sequence (Q01959 whole entry): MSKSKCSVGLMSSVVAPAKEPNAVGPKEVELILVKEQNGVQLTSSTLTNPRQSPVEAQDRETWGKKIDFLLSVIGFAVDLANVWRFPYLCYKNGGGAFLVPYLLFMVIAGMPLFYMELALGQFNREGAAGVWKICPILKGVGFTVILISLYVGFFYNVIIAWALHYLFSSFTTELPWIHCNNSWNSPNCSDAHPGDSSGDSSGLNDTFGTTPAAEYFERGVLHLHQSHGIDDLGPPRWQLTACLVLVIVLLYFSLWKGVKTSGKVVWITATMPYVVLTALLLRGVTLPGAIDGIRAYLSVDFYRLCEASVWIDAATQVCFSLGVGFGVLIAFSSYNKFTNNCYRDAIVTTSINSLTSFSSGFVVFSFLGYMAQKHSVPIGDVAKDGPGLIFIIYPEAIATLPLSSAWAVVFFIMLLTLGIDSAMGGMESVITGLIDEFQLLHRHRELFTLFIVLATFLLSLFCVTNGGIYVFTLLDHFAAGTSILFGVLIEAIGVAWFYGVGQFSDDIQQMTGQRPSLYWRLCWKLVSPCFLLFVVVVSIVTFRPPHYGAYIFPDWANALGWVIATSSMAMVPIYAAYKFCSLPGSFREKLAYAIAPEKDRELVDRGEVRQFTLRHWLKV
row,SMILES,IC50
1,CCCCC(=O)N(Cc1ccc(-c2ccccc2-c2nnn[nH]2)cc1)[C@H](C(=O)O)C(C)C,Not Active
2,O=C(O)COc1ccc(C(=O)c2cccs2)c(Cl)c1Cl,Not Active
3,"O=C(O)CCCCC1CCSS1 (stereo not drawn) [LIPOIC ACID, ALPHA]",Not Active
4,Oc1ccc2c3c1O[C@H]1[C@@H](O)CC[C@@]4(O)[C@@H](C2)N(CC2CCC2)CC[C@]314 [NALBUPHINE],Not Active
5,C[C@]12C=CC(=O)C=C1CC[C@@H]1[C@@H]2C(=O)C[C@@]2(C)[C@H]1CC[C@]2(O)C(=O)CO [PREDNISONE],Not Active
6,O=C(O)c1ccccc1O [SALICYLIC ACID],Not Active
7,C[S+]([O-])c1ccc(-c2nc(-c3ccncc3)c(-c3ccc(F)cc3)[nH]2)cc1 (configuration not stated) [SB-203580],Not Active
8,CC1CCC(NC(=O)N(CCCl)N=O)CC1 (configuration not stated) [SEMUSTINE],Not Active
9,C[N+](C)(C)CCOC(=O)CCC(=O)OCC[N+](C)(C)C.[Cl-].[Cl-] [SUCCINYLCHOLINE CHLORIDE],Not Active

# Test system: not listed separately
# Experiment: DRUGMATRIX: Glutamate, NMDA, Phencyclidine radioligand binding (ligand: [3H] TCP)
# Type: cell membranes, Rattus norvegicus, Wistar, Cerebral cortex, Membrane
# Conditions: Not Active = under 50% inhibition at 10 µM
SMILES,IC50,Ki
CCCCC(=O)N(Cc1ccc(-c2ccccc2-c2nnn[nH]2)cc1)[C@H](C(=O)O)C(C)C,Not Active,Not Active
O=C(O)COc1ccc(C(=O)c2cccs2)c(Cl)c1Cl,Not Active,Not Active
"O=C(O)CCCCC1CCSS1 (stereo not drawn) [LIPOIC ACID, ALPHA]",Not Active,Not Active
C[C@]12C=CC(=O)C=C1CC[C@@H]1[C@@H]2C(=O)C[C@@]2(C)[C@H]1CC[C@]2(O)C(=O)CO [PREDNISONE],Not Active,Not Active
O=C(O)c1ccccc1O [SALICYLIC ACID],Not Active,Not Active
CC1CCC(NC(=O)N(CCCl)N=O)CC1 (configuration not stated) [SEMUSTINE],Not Active,Not Active
C[N+](C)(C)CCOC(=O)CCC(=O)OCC[N+](C)(C)C.[Cl-].[Cl-] [SUCCINYLCHOLINE CHLORIDE],Not Active,Not Active
